Measurements reported in US9687572B2, “PSMA-targeted dendrimers” (MOLECULAR INSIGHT PHARMACEUTICALS, INC., priority 2010, dated 2017).

Molecular target: T1, PSMA (Homo sapiens, UniProt Q04609)
T1 construct: host or cells: LNCaP human prostate cancer cells
Assay: Competitive binding assay against [123I]-MIP-1072 on LNCaP cells
Conditions: FIG. 1
Procedure: The newly prepared analogs of the general structure 5 were screened in a human prostate cancer cell binding assay at a concentration of 3 nM using PSMA positive (+), LnCap cells.
Human prostate cancer cell line, LNCaP (PSMA positive) were obtained from the American Type Culture Collection (Rockville, Md.). LNCaP cells were maintained in RPMI-1640 medium (Invitrogen, Carlsbad, Calif.) supplemented with 10% fetal bovine serum (Hyclone, Logan, Utah) in a humidified incubator at 37° C./5% CO2. Cells were removed from flasks for passage or for transfer to 12-well assay plates by incubating them with 0.25% trypsin/EDTA (Invitrogen, Carlsbad, Calif.).
In a typical competitive binding assay, LNCaP cells were plated in 12-well plates at approximately 4×10^5 cells/well and incubated for 48 hours in a humidified incubator at 37° C./5% carbon dioxide prior to addition of PSMA inhibitors. The exemplary EDTA-PSMA tetramer MIP-1444 was diluted in serum-free cell culture medium containing 0.5% bovine serum albumin (BSA). Diluted MIP-1444 was added to the cells in the presence of 3 nM [^123I]-MIP-1072 for 1 hour at room temperature. Cells were removed from the plates by gently pipetting and transferred to 1.5 mL Eppendorff tubes. Samples were microcentrifuged for 30 seconds at 15K×g. […] Cell binding of [^123I]-MIP-1072 was determined by counting the cell pellet in a Wallac 1282 automated gamma counter. […]

T1 sequence (Q04609 whole entry): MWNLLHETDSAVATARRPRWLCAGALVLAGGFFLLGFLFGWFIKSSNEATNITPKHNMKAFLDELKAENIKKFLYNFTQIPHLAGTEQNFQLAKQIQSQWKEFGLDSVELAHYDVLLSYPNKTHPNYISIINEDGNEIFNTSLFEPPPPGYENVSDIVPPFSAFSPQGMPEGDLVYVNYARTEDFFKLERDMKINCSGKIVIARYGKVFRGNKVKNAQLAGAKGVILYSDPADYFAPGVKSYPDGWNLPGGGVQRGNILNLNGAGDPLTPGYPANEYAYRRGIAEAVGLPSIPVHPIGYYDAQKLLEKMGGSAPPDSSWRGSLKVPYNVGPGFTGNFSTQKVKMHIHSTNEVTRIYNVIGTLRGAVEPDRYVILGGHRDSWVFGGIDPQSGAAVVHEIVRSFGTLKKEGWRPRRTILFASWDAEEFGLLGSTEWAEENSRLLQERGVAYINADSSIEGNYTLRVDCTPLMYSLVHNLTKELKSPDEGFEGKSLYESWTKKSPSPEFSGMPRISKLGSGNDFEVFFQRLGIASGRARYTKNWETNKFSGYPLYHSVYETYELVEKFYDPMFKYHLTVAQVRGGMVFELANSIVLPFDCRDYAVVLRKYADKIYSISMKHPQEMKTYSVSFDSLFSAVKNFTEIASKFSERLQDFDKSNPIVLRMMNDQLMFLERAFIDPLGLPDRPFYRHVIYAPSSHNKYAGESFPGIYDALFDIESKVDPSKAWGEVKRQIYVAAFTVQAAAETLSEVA

NCCCC[C@H](NC(=O)N[C@@H](CCC(=O)O)C(=O)O)C(=O)O [MIP-1033]
IC50 value fold greater than the IC50 for the tetramer MIP-1444 (3 nM [123I]-MIP-1072, 1 hour at room temperature): 36 fold
affinity for PSMA (in words) (competitive binding curves): low affinity
